Values joined by “and” are separate entries in the source; they are usually repeats but may differ in a detail not shown here. Equal entries are not always repeated.
Tested on: migraine attacks
Experiment: Naltrexone/acetaminophen open-label pilot study, acute treatment of migraine: headache pain (4-point scale; relief score ≤1, pain-free score = 0), associated symptoms, additional meds
Type: in vivo, human
Description: Sixteen unique patients were enrolled in an open phase pilot study for the acute treatment of migraine attacks, insomnia, and emotional pain. Of the sixteen patients, eleven were evaluated for one migraine attack, one for two attacks, two for four attacks, one for six attacks, and one for fourteen attacks. A total of forty-one […] treatments were evaluated. Patients received a single dose of one of the following treatment options:
The majority of the patients remained in the clinic for observation for 2 hours after dosing. They completed headache diary assessments immediately before and after dosing at time points: 7, 15, and 30 minutes; and 1, 1.5, 2, 3, 6, 12, 24, and 48 hours. Headache pain was assessed on a 4-point scale (0=none; 1=mild; 2=moderate; 3=severe). The assessment of photophobia, phonophobia, nausea, and neck/shoulder pain was assessed as present or absent. The assessment of emotional pain was recorded on a 4-point scale (0=none, 1=mild, 2=moderate, 3=severe). The assessment of difficulty sleeping or falling asleep (insomnia) was assessed on a 4-point scale (0=none, 1=mild, 2=moderate, 3=severe) at baseline, for the night before treatment and for the following nights at 24, and 48 hours. Patients recorded side effects severity at each time point. Patients recorded the time of the first rescue medication dose and all additional headache medications used within 48 hours. Patients were required to stay awake to record their assessments in the first 2 hours, sleeping was permitted thereafter. While asleep, assessments were completed according to patients' best estimation. For data analysis, it was assumed that a migraine attack is a unique patient. Patients were asked to specify (yes or no answer) to whether they experienced emotional pain symptoms such as: hurt feelings, sadness, fear, or anger. Patients who replied positively to having emotional pain were asked to specify the cause into one of the following options: relationship, work/school, money/debt, health, or loss/grief.

[1] = 1 h, NTX/APAP 3.25 mg/325 mg, NTX 3.25 mg
[2] = 1 h, NTX/APAP 5 mg/325 mg, NTX 5 mg
[3] = 1 h, NTX/APAP […]325 mg, NTX 1.5 mg
[4] = 1 h, naltrexone/acetaminophen 2.25 mg/325 mg (N=21), naltrexone 2.25 mg (N=9)
[5] = 90 min, NTX/APAP 2.25 mg/325 mg, NTX 2.25 mg
[6] = 90 min, NTX/APAP 3.25 mg/325 mg, NTX 3.25 mg
[7] = 90 min, NTX/APAP 5 mg/325 mg, NTX 5 mg
[8] = 90 min, NTX/APAP […]325 mg, NTX 1.5 mg
[9] = 90 min, naltrexone/acetaminophen 2.25 mg/325 mg (N=21), naltrexone 2.25 mg (N=9)
[10] = 2 h, NTX/APAP 2.25 mg/325 mg, NTX 2.25 mg
[11] = 2 h, NTX/APAP 3.25 mg/325 mg, NTX 3.25 mg
[12] = 2 h, NTX/APAP 5 mg/325 mg, NTX 5 mg
[13] = 2 h, NTX/APAP […]325 mg, NTX 1.5 mg
[14] = 2 h, naltrexone/acetaminophen 2.25 mg/325 mg (N=21), naltrexone 2.25 mg (N=9)
[15] = 3 h, NTX/APAP 2.25 mg/325 mg, NTX 2.25 mg

O=C1CC[C@@]2(O)[C@H]3Cc4ccc(O)c5c4[C@@]2(CCN3CC2CC2)[C@H]1O5 [naltrexone]
0: Additional meds taken [2] | Additional meds taken [3] | Additional meds taken (1 h, all doses combined) | Additional meds taken (90 min, all doses combined) | Additional meds taken [10] | Additional meds taken [11] | Additional meds taken [12] | Additional meds taken [13] | Additional meds taken (2 h, combined doses)
2 (66) n (%): Most bothersome symptom free [1] | Phonophobia-free [1] | Headache pain-relief [3] | Neck/shoulder pain-free [3] | Photophobia-free [3] | Most bothersome symptom free [6] | Nausea-free [6] | Phonophobia-free [6] | Photophobia-free [6] | Most bothersome symptom free [8]
11 (69) n (%): Most bothersome symptom free (1 h, all doses combined)
10 (63) n (%): Photophobia-free (1 h, all doses combined)
0 (0): Additional meds taken [5] | Additional meds taken [6] | Additional meds taken [7] | Additional meds taken [8] | Additional meds taken [15]
77% and 100%: Headache pain-free [9] | Headache pain-free [14]
1 n (%): Headache pain-relief [2] | Most bothersome symptom free [2] | Nausea-free [2] | Neck/shoulder pain-free [2] | Phonophobia-free [2] | Photophobia-free [2] | Headache pain-free [12] | Headache pain-relief [12] | Most bothersome symptom free [12] | Nausea-free [12] | Neck/shoulder pain-free [12] | Phonophobia-free [12] | Photophobia-free [12]
9 (100) n (%): Headache pain-relief [5] | Most bothersome symptom free [5] | Nausea-free [5] | Neck/shoulder pain-free [5] | Phonophobia-free [5] | Headache pain-relief [10] | Most bothersome symptom free [10] | Nausea-free [10] | Neck/shoulder pain-free [10] | Phonophobia-free [10] | Headache pain-relief [15] | Most bothersome symptom free [15] | Nausea-free [15] | Neck/shoulder pain-free [15] | Phonophobia-free [15]
1 (100) n (%): Headache pain-free [7] | Headache pain-relief [7] | Most bothersome symptom free [7] | Nausea-free [7] | Neck/shoulder pain-free [7] | Phonophobia-free [7] | Photophobia-free [7] | Phonophobia-free [8] | Photophobia-free [8]
1 (33) n (%): Photophobia-free [1] | Headache pain-free [3] | Most bothersome symptom free [3] | Phonophobia-free [3] | Headache pain-free [8] | Neck/shoulder pain-free [8]
16 (100) n (%): Headache pain-relief (90 min, all doses combined) | Nausea-free (90 min, all doses combined) | Headache pain-relief (2 h, combined doses) | Most bothersome symptom free (2 h, combined doses) | Nausea-free (2 h, combined doses) | Neck/shoulder pain-free (2 h, combined doses) | Phonophobia-free (2 h, combined doses) | Photophobia-free (2 h, combined doses)
44%: Headache pain-free [4]
33%: Headache pain-free (1 h, naltrexone 1.5 mg (N=3))
0 n (%): Headache pain-free [2]
8 (88) n (%): Photophobia-free [5] | Photophobia-free [10]
14 (88) n (%): Most bothersome symptom free (90 min, all doses combined) | Neck/shoulder pain-free (90 min, all doses combined) | Headache pain-free (2 h, combined doses)
3 (100) n (%): Headache pain-relief [1] | Nausea-free [1] | Neck/shoulder pain-free [1] | Nausea-free [3] | Headache pain-free [6] | Headache pain-relief [6] | Neck/shoulder pain-free [6] | Headache pain-relief [8] | Nausea-free [8] | Headache pain-free [11] | Headache pain-relief [11] | Most bothersome symptom free [11] | Nausea-free [11] | Neck/shoulder pain-free [11] | Phonophobia-free [11] | Photophobia-free [11] | Headache pain-free [13] | Headache pain-relief [13] | Most bothersome symptom free [13] | Nausea-free [13] | Neck/shoulder pain-free [13] | Phonophobia-free [13] | Photophobia-free [13]
8 (50) n (%): Headache pain-free (1 h, all doses combined)
13 (81) n (%): Headache pain-relief (1 h, all doses combined) | Headache pain-free (90 min, all doses combined) | Phonophobia-free (90 min, all doses combined)
77%: Most bothersome symptom-free [4]
100%: Headache pain-free (1 h, naltrexone/acetaminophen 3.25 mg/325 mg (N=3), naltrexone 3.25 mg (N=3)) | Headache pain-free (90 min, naltrexone 1.5 mg (N=3)) | Headache pain-relief [9] | Most bothersome symptom-free [9] | Headache pain-free (90 min, naltrexone/acetaminophen 3.25 mg/325 mg (N=3), naltrexone 3.25 mg (N=3)) | Headache pain-free (2 h, naltrexone 1.5 mg (N=3)) | Headache pain-relief [14] | Most bothersome symptom-free [14] | Headache pain-free (2 h, naltrexone/acetaminophen 3.25 mg/325 mg (N=3), naltrexone 3.25 mg (N=3))
12 (75) n (%): Nausea-free (1 h, all doses combined) | Neck/shoulder pain-free (1 h, all doses combined) | Phonophobia-free (1 h, all doses combined) | Photophobia-free (90 min, all doses combined)
88%: Headache pain-relief [4]
7 (77) n (%): Headache pain-free [5] | Headache pain-free [10] | Headache pain-free [15]

Source: patent US11058680B2, “Combinations of opioid/TLR4 antagonists and acetaminophen for use in the treatment of emotional pain and insomnia” (Allodynic Threapeutics, LLC, priority 2016, dated 2021)
